Measured values published in ChEMBL document CHEMBL4507262, “Data for DCP probe A-1596586” (2021).
Activity calls are given as the source filed them. The calls are words filed in the database; no cut-off is given here.

Key:
[1] = molecular target: Cyclin-dependent kinase 13 (Homo sapiens) (UniProt Q14004); conditions: Compound concentration 1000.0 nM
[2] = molecular target: Ribosomal protein S6 kinase alpha-3 (Homo sapiens) (UniProt P51812); conditions: Compound concentration 1000.0 nM
[3] = molecular target: Macrophage colony-stimulating factor 1 receptor (Homo sapiens) (UniProt P07333); conditions: Compound concentration 1000.0 nM
[4] = molecular target: Serine/threonine-protein kinase OSR1 (Homo sapiens) (UniProt O95747); conditions: Compound concentration 1000.0 nM
Serine/threonine-protein kinase OSR1 (Homo sapiens), sequence (O95747 2-527 limits assumed): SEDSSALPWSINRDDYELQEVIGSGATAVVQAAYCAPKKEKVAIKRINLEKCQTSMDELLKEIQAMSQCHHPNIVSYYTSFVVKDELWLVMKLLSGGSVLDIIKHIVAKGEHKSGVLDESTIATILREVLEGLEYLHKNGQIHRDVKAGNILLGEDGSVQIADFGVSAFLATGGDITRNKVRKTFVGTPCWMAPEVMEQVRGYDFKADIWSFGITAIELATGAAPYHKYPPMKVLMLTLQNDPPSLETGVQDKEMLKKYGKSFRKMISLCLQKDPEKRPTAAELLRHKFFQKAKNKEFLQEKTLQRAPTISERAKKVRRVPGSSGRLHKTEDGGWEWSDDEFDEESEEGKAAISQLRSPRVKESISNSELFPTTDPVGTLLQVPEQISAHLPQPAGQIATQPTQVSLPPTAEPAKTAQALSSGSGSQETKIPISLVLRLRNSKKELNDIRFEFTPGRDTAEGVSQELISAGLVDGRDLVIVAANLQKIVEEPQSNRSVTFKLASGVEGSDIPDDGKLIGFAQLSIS

[5] = molecular target: Protein kinase C iota type (Homo sapiens) (UniProt P41743); conditions: Compound concentration 1000.0 nM
[6] = molecular target: Mu-type opioid receptor (Homo sapiens) (UniProt P35372); conditions: Compound concentration 10.0 uM
[7] = molecular target: Cystic fibrosis transmembrane conductance regulator (Homo sapiens, UniProt P13569); experiment: Plasma membrane-expressed enzyme acceptor protein (EA-MEM) assay
[8] = molecular target: Adenosine receptor A2b (Homo sapiens) (UniProt P29275); experiment: A2B (h) Eurofins-Cerep binding assay; parameters: ligand concentration 5 nM; conditions: filed as antagonist, Compound concentration 10.0 uM
Adenosine receptor A2b (Homo sapiens), sequence (P29275 whole entry): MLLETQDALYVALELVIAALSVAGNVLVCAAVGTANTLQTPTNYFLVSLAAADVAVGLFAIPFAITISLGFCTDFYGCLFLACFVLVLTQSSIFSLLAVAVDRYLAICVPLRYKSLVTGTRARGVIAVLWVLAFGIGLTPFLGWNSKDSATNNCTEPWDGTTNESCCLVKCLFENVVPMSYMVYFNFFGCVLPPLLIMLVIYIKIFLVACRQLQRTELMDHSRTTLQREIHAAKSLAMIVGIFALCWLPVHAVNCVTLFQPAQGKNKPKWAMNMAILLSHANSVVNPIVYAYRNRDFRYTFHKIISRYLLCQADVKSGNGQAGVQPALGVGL

[9] = molecular target: Tyrosine-protein kinase Lck (Homo sapiens) (UniProt P06239); conditions: Compound concentration 1000.0 nM
[10] = tested on: ALK tyrosine kinase receptor (Homo sapiens), Q9UM73 [C1156Y]; conditions: Compound concentration 1000.0 nM
[11] = molecular target: STE20/SPS1-related proline-alanine-rich protein kinase (Homo sapiens) (UniProt Q9UEW8); conditions: Compound concentration 1000.0 nM
[12] = molecular target: Mitogen-activated protein kinase kinase kinase 19 (Homo sapiens) (UniProt Q56UN5); conditions: Compound concentration 1000.0 nM
[13] = molecular target: Mitogen-activated protein kinase 4 (Homo sapiens) (UniProt P31152); conditions: Compound concentration 1000.0 nM
[14] = molecular target: Protein kinase C eta type (Homo sapiens) (UniProt P24723); conditions: Compound concentration 1000.0 nM
Protein kinase C eta type (Homo sapiens), sequence (P24723 whole entry): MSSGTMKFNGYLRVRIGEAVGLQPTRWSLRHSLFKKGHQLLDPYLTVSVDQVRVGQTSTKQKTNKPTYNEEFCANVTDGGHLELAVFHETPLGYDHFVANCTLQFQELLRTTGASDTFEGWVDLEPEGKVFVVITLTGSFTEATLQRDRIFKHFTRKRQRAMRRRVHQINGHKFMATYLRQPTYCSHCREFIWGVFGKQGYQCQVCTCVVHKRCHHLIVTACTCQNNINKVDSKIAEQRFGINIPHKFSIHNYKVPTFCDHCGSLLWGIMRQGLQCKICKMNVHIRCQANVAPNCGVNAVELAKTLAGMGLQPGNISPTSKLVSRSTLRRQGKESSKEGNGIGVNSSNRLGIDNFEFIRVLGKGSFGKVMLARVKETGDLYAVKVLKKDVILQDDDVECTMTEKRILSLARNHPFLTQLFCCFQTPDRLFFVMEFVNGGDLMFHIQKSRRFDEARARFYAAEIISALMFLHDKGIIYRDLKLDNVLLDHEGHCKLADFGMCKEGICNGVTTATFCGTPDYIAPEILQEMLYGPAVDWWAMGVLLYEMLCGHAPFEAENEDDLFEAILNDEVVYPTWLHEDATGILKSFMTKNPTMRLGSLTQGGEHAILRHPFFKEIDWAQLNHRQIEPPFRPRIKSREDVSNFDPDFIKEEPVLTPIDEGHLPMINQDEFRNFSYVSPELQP

[15] = molecular target: Glutamate NMDA receptor (Rattus norvegicus) (UniProt P35439+Q00959+Q00960+Q00961+Q62645+Q8VHN2+Q9R1M7); experiment: NMDA Eurofins-Cerep binding assay; format: protein-complex assay; parameters: ligand concentration 5 nM; conditions: filed as antagonist, Compound concentration 10.0 uM
[16] = tested on: Tyrosine-protein kinase ABL1 (Homo sapiens), P00519 [T315I]; conditions: Compound concentration 1000.0 nM
[17] = molecular target: Cyclin-dependent kinase 18 (Homo sapiens) (UniProt Q07002); conditions: Compound concentration 1000.0 nM
Cyclin-dependent kinase 18 (Homo sapiens), sequence (Q07002 whole entry): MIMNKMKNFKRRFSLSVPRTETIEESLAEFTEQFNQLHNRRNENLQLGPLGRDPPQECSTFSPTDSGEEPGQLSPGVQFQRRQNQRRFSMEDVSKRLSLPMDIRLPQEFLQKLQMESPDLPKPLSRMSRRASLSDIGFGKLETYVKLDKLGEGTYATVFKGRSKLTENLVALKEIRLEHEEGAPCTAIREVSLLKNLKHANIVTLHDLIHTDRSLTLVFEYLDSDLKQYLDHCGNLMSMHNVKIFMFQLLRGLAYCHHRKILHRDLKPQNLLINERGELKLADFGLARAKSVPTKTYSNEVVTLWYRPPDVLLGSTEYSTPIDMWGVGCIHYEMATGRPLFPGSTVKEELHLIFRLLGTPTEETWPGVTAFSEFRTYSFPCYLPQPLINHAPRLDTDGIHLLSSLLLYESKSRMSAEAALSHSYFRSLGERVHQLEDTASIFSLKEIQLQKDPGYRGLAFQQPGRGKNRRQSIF

[18] = molecular target: Dual specificity protein kinase TTK (Homo sapiens) (UniProt P33981); conditions: Compound concentration 1000.0 nM
[19] = molecular target: Tyrosine-protein kinase ABL2 (Homo sapiens) (UniProt P42684); conditions: Compound concentration 1000.0 nM
[20] = molecular target: Inhibitor of nuclear factor kappa-B kinase subunit beta (Homo sapiens) (UniProt O14920); conditions: Compound concentration 1000.0 nM
Inhibitor of nuclear factor kappa-B kinase subunit beta (Homo sapiens), sequence (O14920 whole entry): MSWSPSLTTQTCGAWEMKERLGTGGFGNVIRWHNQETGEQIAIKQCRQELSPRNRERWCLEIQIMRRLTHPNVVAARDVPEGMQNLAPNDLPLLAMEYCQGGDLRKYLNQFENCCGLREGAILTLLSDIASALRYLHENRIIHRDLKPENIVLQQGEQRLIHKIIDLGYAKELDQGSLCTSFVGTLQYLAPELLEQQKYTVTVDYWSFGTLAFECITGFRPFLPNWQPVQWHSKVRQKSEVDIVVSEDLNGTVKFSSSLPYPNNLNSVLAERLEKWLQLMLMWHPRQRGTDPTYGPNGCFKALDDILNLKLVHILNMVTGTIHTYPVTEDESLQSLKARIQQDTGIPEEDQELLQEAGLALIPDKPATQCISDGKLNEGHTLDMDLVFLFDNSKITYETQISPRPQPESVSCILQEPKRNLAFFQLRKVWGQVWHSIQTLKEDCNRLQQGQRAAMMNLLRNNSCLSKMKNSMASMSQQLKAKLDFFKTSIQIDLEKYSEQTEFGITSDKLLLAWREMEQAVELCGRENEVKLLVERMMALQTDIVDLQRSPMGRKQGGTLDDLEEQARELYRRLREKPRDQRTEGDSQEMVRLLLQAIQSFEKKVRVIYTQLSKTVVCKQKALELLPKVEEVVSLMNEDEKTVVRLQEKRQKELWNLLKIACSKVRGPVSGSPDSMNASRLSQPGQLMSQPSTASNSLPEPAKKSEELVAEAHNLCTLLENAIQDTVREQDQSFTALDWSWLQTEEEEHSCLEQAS

[21] = molecular target: Serine/threonine-protein kinase TBK1 (Homo sapiens) (UniProt Q9UHD2); conditions: Compound concentration 1000.0 nM
[22] = molecular target: Ephrin type-B receptor 3 (Homo sapiens) (UniProt P54753); conditions: Compound concentration 1000.0 nM
[23] = molecular target: Ephrin type-A receptor 4 (Homo sapiens) (UniProt P54764); conditions: Compound concentration 1000.0 nM
[24] = molecular target: Serine/threonine-protein kinase Nek5 (Homo sapiens) (UniProt Q6P3R8); conditions: Compound concentration 1000.0 nM
[25] = molecular target: Endothelin receptor type B (Homo sapiens) (UniProt P24530); experiment: ETB (h) Eurofins-Cerep binding assay; parameters: ligand concentration 0.03 nM; conditions: filed as agonist, Compound concentration 10.0 uM
[26] = molecular target: Serine/threonine-protein kinase PAK 4 (Homo sapiens) (UniProt O96013); conditions: Compound concentration 1000.0 nM
[27] = molecular target: Rhodopsin kinase GRK7 (Homo sapiens) (UniProt Q8WTQ7); conditions: Compound concentration 1000.0 nM
Rhodopsin kinase GRK7 (Homo sapiens), sequence (Q8WTQ7 whole entry): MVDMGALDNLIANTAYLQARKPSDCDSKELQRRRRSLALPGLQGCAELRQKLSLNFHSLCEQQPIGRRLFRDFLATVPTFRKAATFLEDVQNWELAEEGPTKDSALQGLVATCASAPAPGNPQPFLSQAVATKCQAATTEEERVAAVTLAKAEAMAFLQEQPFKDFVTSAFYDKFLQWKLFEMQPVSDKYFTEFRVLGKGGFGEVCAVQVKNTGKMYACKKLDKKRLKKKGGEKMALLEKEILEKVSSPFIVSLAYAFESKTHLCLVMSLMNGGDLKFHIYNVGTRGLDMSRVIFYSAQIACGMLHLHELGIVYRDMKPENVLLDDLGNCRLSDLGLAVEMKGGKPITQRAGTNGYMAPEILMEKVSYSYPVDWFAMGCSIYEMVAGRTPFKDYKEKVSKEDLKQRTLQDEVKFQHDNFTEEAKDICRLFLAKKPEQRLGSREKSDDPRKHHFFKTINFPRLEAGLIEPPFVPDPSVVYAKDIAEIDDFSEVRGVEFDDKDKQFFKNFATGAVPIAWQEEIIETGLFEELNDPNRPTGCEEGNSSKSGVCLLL

[28] = molecular target: Cannabinoid receptor 1 (Homo sapiens) (UniProt P21554); experiment: CB1 (h) Eurofins-Cerep binding assay; parameters: ligand concentration 0.5 nM; conditions: filed as agonist, Compound concentration 10.0 uM
[29] = molecular target: Microtubule-associated serine/threonine-protein kinase 1 (Homo sapiens) (UniProt Q9Y2H9); conditions: Compound concentration 1000.0 nM
[30] = tested on: Epidermal growth factor receptor (Homo sapiens), P00533 [L858R,T790M]; conditions: Compound concentration 1000.0 nM
[31] = molecular target: Dual specificity mitogen-activated protein kinase kinase 4 (Homo sapiens) (UniProt P45985); conditions: Compound concentration 1000.0 nM
Dual specificity mitogen-activated protein kinase kinase 4 (Homo sapiens), sequence (P45985 whole entry): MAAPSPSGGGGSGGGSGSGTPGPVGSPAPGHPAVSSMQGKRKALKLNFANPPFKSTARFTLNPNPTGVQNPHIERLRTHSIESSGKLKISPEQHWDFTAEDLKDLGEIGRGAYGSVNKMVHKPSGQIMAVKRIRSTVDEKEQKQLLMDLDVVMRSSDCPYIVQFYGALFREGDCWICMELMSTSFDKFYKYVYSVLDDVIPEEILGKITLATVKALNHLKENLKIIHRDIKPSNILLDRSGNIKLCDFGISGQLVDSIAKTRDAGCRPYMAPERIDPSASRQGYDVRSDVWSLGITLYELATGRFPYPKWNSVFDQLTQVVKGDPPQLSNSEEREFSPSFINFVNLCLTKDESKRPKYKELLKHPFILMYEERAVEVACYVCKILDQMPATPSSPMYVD

[32] = molecular target: Protein-tyrosine kinase 2-beta (Homo sapiens) (UniProt Q14289); conditions: Compound concentration 1000.0 nM
[33] = tested on: eIF-2-alpha kinase GCN2 (Homo sapiens), Q9P2K8 [S808G]; conditions: Compound concentration 1000.0 nM
[34] = molecular target: Cyclin-dependent kinase 15 (Homo sapiens) (UniProt Q96Q40); conditions: Compound concentration 1000.0 nM
[35] = molecular target: Mitogen-activated protein kinase kinase kinase 15 (Homo sapiens) (UniProt Q6ZN16); conditions: Compound concentration 1000.0 nM
[36] = molecular target: Phosphatidylinositol 4-kinase beta (Homo sapiens) (UniProt Q9UBF8); conditions: Compound concentration 1000.0 nM
Phosphatidylinositol 4-kinase beta (Homo sapiens), sequence (Q9UBF8 2-816 limits assumed): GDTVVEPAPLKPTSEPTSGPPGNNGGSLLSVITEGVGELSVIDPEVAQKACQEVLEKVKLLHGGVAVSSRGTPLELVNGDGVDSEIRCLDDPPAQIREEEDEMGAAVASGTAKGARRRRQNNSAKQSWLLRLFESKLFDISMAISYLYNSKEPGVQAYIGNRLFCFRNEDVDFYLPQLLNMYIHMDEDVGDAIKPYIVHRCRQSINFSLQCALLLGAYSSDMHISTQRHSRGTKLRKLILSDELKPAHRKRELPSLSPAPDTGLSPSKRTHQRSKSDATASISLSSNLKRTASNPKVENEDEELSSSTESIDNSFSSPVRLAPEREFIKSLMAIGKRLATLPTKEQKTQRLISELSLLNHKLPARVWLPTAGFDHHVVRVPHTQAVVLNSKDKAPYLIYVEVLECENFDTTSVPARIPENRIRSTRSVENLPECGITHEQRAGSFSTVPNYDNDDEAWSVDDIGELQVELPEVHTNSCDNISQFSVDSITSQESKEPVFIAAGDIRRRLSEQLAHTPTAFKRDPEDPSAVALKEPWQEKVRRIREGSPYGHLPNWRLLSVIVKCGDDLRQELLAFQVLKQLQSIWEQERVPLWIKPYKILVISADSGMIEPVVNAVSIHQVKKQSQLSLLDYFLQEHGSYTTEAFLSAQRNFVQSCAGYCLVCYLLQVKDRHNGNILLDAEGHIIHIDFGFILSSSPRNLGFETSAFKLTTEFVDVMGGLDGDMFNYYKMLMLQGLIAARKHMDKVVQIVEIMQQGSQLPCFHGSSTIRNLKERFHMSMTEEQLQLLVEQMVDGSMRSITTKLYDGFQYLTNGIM

[37] = molecular target: Tyrosine-protein kinase BTK (Homo sapiens) (UniProt Q06187); conditions: Compound concentration 1000.0 nM
[38] = molecular target: Protein kinase C delta type (Homo sapiens) (UniProt Q05655); conditions: Compound concentration 1000.0 nM
[39] = molecular target: NT-3 growth factor receptor (Homo sapiens) (UniProt Q16288); conditions: Compound concentration 1000.0 nM
[40] = molecular target: Serine/threonine-protein kinase pim-2 (Homo sapiens) (UniProt Q9P1W9); conditions: Compound concentration 1000.0 nM
Serine/threonine-protein kinase pim-2 (Homo sapiens), sequence (Q9P1W9 whole entry, looked up): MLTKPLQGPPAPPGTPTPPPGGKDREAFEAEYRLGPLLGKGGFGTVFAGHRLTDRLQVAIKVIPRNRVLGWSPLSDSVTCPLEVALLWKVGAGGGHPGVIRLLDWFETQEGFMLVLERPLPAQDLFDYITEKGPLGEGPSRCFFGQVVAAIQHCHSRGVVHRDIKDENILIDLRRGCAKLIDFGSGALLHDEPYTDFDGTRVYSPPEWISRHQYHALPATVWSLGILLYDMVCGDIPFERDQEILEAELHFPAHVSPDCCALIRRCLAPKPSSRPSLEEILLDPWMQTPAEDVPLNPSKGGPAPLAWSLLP

[41] = molecular target: 5'-AMP-activated protein kinase catalytic subunit alpha-1 (Homo sapiens) (UniProt Q13131); conditions: Compound concentration 1000.0 nM
[42] = molecular target: Translocator protein (Rattus norvegicus) (UniProt P16257); experiment: BZD (peripheral) Eurofins-Cerep binding assay; parameters: ligand concentration 0.2 nM; conditions: filed as antagonist, Compound concentration 10.0 uM
[43] = molecular target: Insulin receptor (Homo sapiens) (UniProt P06213); conditions: Compound concentration 1000.0 nM
[44] = molecular target: Serine/threonine-protein kinase WNK2 (Homo sapiens) (UniProt Q9Y3S1); conditions: Compound concentration 1000.0 nM
[45] = tested on: Epidermal growth factor receptor (Homo sapiens), P00533 [G719C]; conditions: Compound concentration 1000.0 nM

## COc1ccc2c(c1)O[C@@H](c1ccc(OC)c(OC)c1)C[C@H]2NC(=O)C1(c2ccc3c(c2)OC(F)(F)O3)CC1 [A-1596586]
[1]
  residual activity: 98%
[2]
  residual activity: 100%
[3]
  residual activity: 100%
[4]
  residual activity: 90%
[5]
  residual activity: 92%
[6]
  inhibition: 6.01%
[7]
  EC50: 35 nM (active)
[8]
  % Inhibition of Control Specific Binding (Mean n=2): 3.7%
[9]
  residual activity: 100%
[10]
  residual activity: 84%
[11]
  residual activity: 71%
[12]
  residual activity: 83%
[13]
  residual activity: 99%
[14]
  residual activity: 96%
[15]
  % Inhibition of Control Specific Binding (Mean n=2): 8.7%
[16]
  residual activity: 82%
[17]
  residual activity: 100%
[18]
  residual activity: 100%
[19]
  residual activity: 89%
[20]
  residual activity: 95%
[21]
  residual activity: 86%
[22]
  residual activity: 90%
[23]
  residual activity: 100%
[24]
  residual activity: 71%
[25]
  % Inhibition of Control Specific Binding (Mean n=2): -9.1%
[26]
  residual activity: 89%
[27]
  residual activity: 100%
[28]
  % Inhibition of Control Specific Binding (Mean n=2): 40.8%
[29]
  residual activity: 100%
[30]
  residual activity: 100%
[31]
  residual activity: 92%
[32]
  residual activity: 100%
[33]
  residual activity: 95%
[34]
  residual activity: 100%
[35]
  residual activity: 88%
[36]
  residual activity: 73%
[37]
  residual activity: 81%
[38]
  residual activity: 100%
[39]
  residual activity: 83%
[40]
  residual activity: 100%
[41]
  residual activity: 80%
[42]
  % Inhibition of Control Specific Binding (Mean n=2): 95.9%
[43]
  residual activity: 79%
[44]
  residual activity: 84%
[45]
  residual activity: 96%

## COc1ccc2c(c1)O[C@H](c1ccc(OC)c(OC)c1)C[C@@H]2NC(=O)C1(c2ccc3c(c2)OC(F)(F)O3)CC1 [A-1596584]
[1]
  residual activity: 100%
[2]
  residual activity: 93%
[3]
  residual activity: 100%
[4]
  residual activity: 98%
[5]
  residual activity: 89%
[6]
  inhibition: 4.18%
[7]
  EC50: 3900 nM (not active)
[8]
  % Inhibition of Control Specific Binding (Mean n=2): 3.6%
[9]
  residual activity: 100%
[10]
  residual activity: 100%
[11]
  residual activity: 100%
[12]
  residual activity: 100%
[13]
  residual activity: 100%
[14]
  residual activity: 100%
[15]
  % Inhibition of Control Specific Binding (Mean n=2): 1.3%
[16]
  residual activity: 100%
[17]
  residual activity: 100%
[18]
  residual activity: 100%
[19]
  residual activity: 100%
[20]
  residual activity: 97%
[21]
  residual activity: 99%
[22]
  residual activity: 91%
[23]
  residual activity: 91%
[24]
  residual activity: 100%
[25]
  % Inhibition of Control Specific Binding (Mean n=2): -9%
[26]
  residual activity: 100%
[27]
  residual activity: 100%
[28]
  % Inhibition of Control Specific Binding (Mean n=2): 46%
[29]
  residual activity: 100%
[30]
  residual activity: 96%
[31]
  residual activity: 100%
[32]
  residual activity: 100%
[33]
  residual activity: 97%
[34]
  residual activity: 100%
[35]
  residual activity: 100%
[36]
  residual activity: 81%
[37]
  residual activity: 92%
[38]
  residual activity: 100%
[39]
  residual activity: 92%
[40]
  residual activity: 100%
[41]
  residual activity: 100%
[42]
  % Inhibition of Control Specific Binding (Mean n=2): 79.1%
[43]
  residual activity: 82%
[44]
  residual activity: 85%
[45]
  residual activity: 100%
